Experimental data from PubChem BioAssay (NCI).
Several values for one entry are separate records, joined by “and”; a condition that tells them apart may be missing. Equal entries are not always repeated.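 Cells were grown in 96-well plates and exposed to each compound for 48 hours at five concentrations; endpoints were interpolated linearly between bracketing concentrations, or set to the highest concentration if not reached. Here, GI50 denotes the concentration required for 50% inhibition of growth. The concentration for full growth arrest is given as TGI.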

How the values were obtained:
Assay in all cases: growth of human tumour cells (NCI), 48 h
OVCAR-3 ovarian = system: OVCAR-3 ovarian
NCI-H23 lung = system: NCI-H23 lung
CAKI-1 renal = system: CAKI-1 renal
SK-MEL-28 melanoma = system: SK-MEL-28 melanoma
LOX IMVI melanoma = system: LOX IMVI melanoma
SR leukemia = system: SR leukemia
SNB-19 CNS = system: SNB-19 CNS
OVCAR-8 ovarian = system: OVCAR-8 ovarian
SK-OV-3 ovarian = system: SK-OV-3 ovarian
UO-31 renal = system: UO-31 renal

OCCCNCc1ccccn1
TGI (OVCAR-3 ovarian): > 100 µM | TGI (NCI-H23 lung): > 100 µM | TGI (CAKI-1 renal): > 100 µM | TGI (SK-MEL-28 melanoma): > 100 µM | TGI (LOX IMVI melanoma): > 100 µM | TGI (SR leukemia): > 100 µM | TGI (SNB-19 CNS): > 100 µM | TGI (OVCAR-8 ovarian): > 100 µM | TGI (SK-OV-3 ovarian): > 100 µM | TGI (UO-31 renal): > 100 µM

CC1=CC[C@@H]2C(C)(C)[C@@H](O)CC[C@@]2(C)[C@@H]1COc1ccc2ccc(=O)oc2c1
GI50 (OVCAR-3 ovarian): 4.34 µM | TGI (OVCAR-3 ovarian): 16 µM | GI50 (NCI-H23 lung): 10.8 µM | TGI (NCI-H23 lung): 33 µM | GI50 (CAKI-1 renal): 4.11 µM | TGI (CAKI-1 renal): 20.9 µM | GI50 (SK-MEL-28 melanoma): 11.8 µM | TGI (SK-MEL-28 melanoma): 26.7 µM | GI50 (LOX IMVI melanoma): 4.77 µM | TGI (LOX IMVI melanoma): 19 µM | GI50 (SR leukemia): 7.92 µM | TGI (SR leukemia): 42 µM | GI50 (SNB-19 CNS): 14.3 µM | TGI (SNB-19 CNS): 42.9 µM | GI50 (OVCAR-8 ovarian): 3.77 µM | TGI (OVCAR-8 ovarian): 17.2 µM | GI50 (SK-OV-3 ovarian): 15.5 µM | TGI (SK-OV-3 ovarian): 32.3 µM | GI50 (UO-31 renal): 2.99 µM | TGI (UO-31 renal): 13.1 µM

CCOC(=O)C(=O)Nc1c(C)cccc1CC
TGI (OVCAR-3 ovarian): > 100 µM | TGI (NCI-H23 lung): > 100 µM | TGI (CAKI-1 renal): > 100 µM | TGI (SK-MEL-28 melanoma): > 100 µM | TGI (LOX IMVI melanoma): > 100 µM | TGI (SR leukemia): > 100 µM | TGI (SNB-19 CNS): > 100 µM | TGI (OVCAR-8 ovarian): > 100 µM | TGI (SK-OV-3 ovarian): > 100 µM | TGI (UO-31 renal): > 100 µM

O=c1oc2c3ccc4ccccc4c3n(Cc3nc4ccccc4[nH]3)c2c2ccccc12
TGI (OVCAR-3 ovarian): > 72.8 µM | TGI (NCI-H23 lung): > 100 µM | TGI (CAKI-1 renal): > 100 µM | TGI (SK-MEL-28 melanoma): > 100 µM | TGI (LOX IMVI melanoma): > 100 µM | TGI (SR leukemia): > 100 µM | TGI (SNB-19 CNS): > 100 µM | TGI (OVCAR-8 ovarian): > 100 µM | TGI (SK-OV-3 ovarian): > 100 µM | TGI (UO-31 renal): > 100 µM

Cc1ccc(S(=O)(=O)NCCN2c3nc4ccccc4cc3Sc3cc4ccccc4nc32)cc1
GI50 (OVCAR-3 ovarian): > 26.8 µM | TGI (OVCAR-3 ovarian): > 100 µM | GI50 (NCI-H23 lung): 13 µM | TGI (NCI-H23 lung): > 100 µM | GI50 (CAKI-1 renal): 13.8 µM | TGI (CAKI-1 renal): > 71.7 µM | GI50 (SK-MEL-28 melanoma): > 100 µM | TGI (SK-MEL-28 melanoma): > 100 µM | GI50 (LOX IMVI melanoma): > 81.7 µM | TGI (LOX IMVI melanoma): > 100 µM | GI50 (SR leukemia): > 100 µM | TGI (SR leukemia): > 100 µM | GI50 (SNB-19 CNS): 10.5 µM | TGI (SNB-19 CNS): 67.7 µM | GI50 (OVCAR-8 ovarian): 6.01 µM | TGI (OVCAR-8 ovarian): > 100 µM | GI50 (SK-OV-3 ovarian): 7.82 µM | TGI (SK-OV-3 ovarian): 54.2 µM | GI50 (UO-31 renal): > 100 µM | TGI (UO-31 renal): > 100 µM

CCOC(=O)/C=C/c1ccc(C(=O)OCC)[nH]1
GI50 (OVCAR-3 ovarian): 2.38 µM | TGI (OVCAR-3 ovarian): 7.64 µM | GI50 (NCI-H23 lung): 7.16 µM | TGI (NCI-H23 lung): > 100 µM | GI50 (CAKI-1 renal): 6.36 µM | TGI (CAKI-1 renal): > 100 µM | GI50 (SK-MEL-28 melanoma): 33.7 µM | TGI (SK-MEL-28 melanoma): > 100 µM | GI50 (LOX IMVI melanoma): 5.29 µM | TGI (LOX IMVI melanoma): > 100 µM | GI50 (SR leukemia): 0.676 µM | TGI (SR leukemia): > 100 µM | GI50 (SNB-19 CNS): 24.7 µM | TGI (SNB-19 CNS): > 100 µM | GI50 (OVCAR-8 ovarian): 5.82 µM | TGI (OVCAR-8 ovarian): > 100 µM | GI50 (SK-OV-3 ovarian): 27.8 µM | TGI (SK-OV-3 ovarian): > 100 µM | GI50 (UO-31 renal): 4 µM | TGI (UO-31 renal): > 100 µM

O=S(=O)(O)c1ccc2cc(N=Nc3cc(S(=O)(=O)O)c4cccnc4c3O)ccc2c1
TGI (OVCAR-3 ovarian): > 100 µM | TGI (NCI-H23 lung): > 100 µM | TGI (CAKI-1 renal): > 100 µM | TGI (SK-MEL-28 melanoma): > 100 µM | TGI (LOX IMVI melanoma): > 100 µM | TGI (SR leukemia): > 100 µM | TGI (SNB-19 CNS): > 100 µM | TGI (OVCAR-8 ovarian): > 100 µM | TGI (SK-OV-3 ovarian): > 100 µM | TGI (UO-31 renal): > 100 µM

c1ccc(COc2ccc3[nH]c4c(ncc5[nH]c6ccccc6c54)c3c2)cc1
TGI (OVCAR-3 ovarian): 30.3 µM | TGI (NCI-H23 lung): 35.3 µM | TGI (CAKI-1 renal): 47.5 µM | TGI (SK-MEL-28 melanoma): 31.6 µM | TGI (LOX IMVI melanoma): 32.9 µM | TGI (SR leukemia): 30.3 µM | TGI (SNB-19 CNS): 33.5 µM | TGI (OVCAR-8 ovarian): 32.2 µM | TGI (SK-OV-3 ovarian): 32.9 µM | TGI (UO-31 renal): 32.8 µM

c1cc(-c2sc(-c3ccncc3)c(-c3ccncc3)c2-c2ccncc2)ccn1
TGI (OVCAR-3 ovarian): 44.4 µM | TGI (NCI-H23 lung): 31.9 µM | TGI (CAKI-1 renal): > 100 µM | TGI (SK-MEL-28 melanoma): 46.1 µM | TGI (LOX IMVI melanoma): 30.8 µM | TGI (SR leukemia): > 100 µM | TGI (SNB-19 CNS): 55.9 µM | TGI (OVCAR-8 ovarian): > 100 µM | TGI (SK-OV-3 ovarian): 54 µM | TGI (UO-31 renal): 30 µM

Cn1cnc([N+](=O)[O-])c1Sc1ncnc2nc[nH]c12
GI50 (OVCAR-3 ovarian): 2.92 µM and 3.23 µM | TGI (OVCAR-3 ovarian): 75.9 µM and > 80.2 µM | GI50 (NCI-H23 lung): 4.01 µM and 13.3 µM | TGI (NCI-H23 lung): > 100 µM | GI50 (CAKI-1 renal): 2.6 µM and 5.07 µM | TGI (CAKI-1 renal): > 100 µM | GI50 (SK-MEL-28 melanoma): 37.8 µM and 40.2 µM | TGI (SK-MEL-28 melanoma): > 100 µM | GI50 (LOX IMVI melanoma): 1.11 µM and 1.63 µM | TGI (LOX IMVI melanoma): > 100 µM | GI50 (SR leukemia): 37.9 µM and 4.04 µM | TGI (SR leukemia): > 100 µM | GI50 (SNB-19 CNS): 61.4 µM and 84.4 µM | TGI (SNB-19 CNS): > 100 µM | GI50 (OVCAR-8 ovarian): 3.68 µM and > 26.6 µM | TGI (OVCAR-8 ovarian): > 100 µM | GI50 (SK-OV-3 ovarian): 0.471 µM and 0.867 µM | TGI (SK-OV-3 ovarian): 39.6 µM and > 100 µM | GI50 (UO-31 renal): 2.39 µM and 14.8 µM | TGI (UO-31 renal): > 100 µM

CCOC(=O)/C(C1=CC(=O)C(=O)c2ccccc21)=C(/C)NCc1ccccc1
GI50 (OVCAR-3 ovarian): 0.218 µM | TGI (OVCAR-3 ovarian): 0.935 µM | GI50 (NCI-H23 lung): 1.85 µM | TGI (NCI-H23 lung): 3.71 µM | GI50 (CAKI-1 renal): 1.61 µM | TGI (CAKI-1 renal): 3.58 µM | GI50 (SK-MEL-28 melanoma): 3.02 µM | TGI (SK-MEL-28 melanoma): 7.32 µM | GI50 (LOX IMVI melanoma): 1.15 µM | TGI (LOX IMVI melanoma): 2.36 µM | GI50 (SR leukemia): 0.127 µM | TGI (SR leukemia): 0.274 µM | GI50 (SNB-19 CNS): 3.24 µM | TGI (SNB-19 CNS): > 100 µM | GI50 (OVCAR-8 ovarian): 3.69 µM | TGI (OVCAR-8 ovarian): 9.5 µM | GI50 (SK-OV-3 ovarian): 2.17 µM | TGI (SK-OV-3 ovarian): 4.88 µM | GI50 (UO-31 renal): 3.35 µM | TGI (UO-31 renal): > 100 µM
